From ChEMBL document CHEMBL4311999, “3-Hydrazinoisatin-based benzenesulfonamides as novel carbonic anhydrase inhibitors endowed with anticancer activity: Synthesis, in vitro biological evaluation and in silico insights” (Eur J Med Chem, 2019)
Values belong to the compound of their own block, whether it stands above or below them.

What was measured:
[1] = target: Carbonic anhydrase 9 (Homo sapiens, UniProt Q16790); assay: Inhibition of recombinant human carbonic anhydrase 9 preincubated for 15 mins by phenol red dye based stopped flow CO2 hydration assay
[2] = tested on: OVCAR-8; assay: Growth inhibition of human OVCAR8 cells at 10 uM incubated for 48 hrs by sulforhodamine B assay relative to control; type: functional; conditions: OVCAR-8, 48 h, read-out: GI
[3] = tested on: CCRF-CEM; assay: Growth inhibition of human CCRF-CEM cells at 10 uM incubated for 48 hrs by sulforhodamine B assay relative to control; type: functional; conditions: read-out: GI
[4] = tested on: HCT-15; assay: Growth inhibition of human HCT15 cells at 10 uM incubated for 48 hrs by sulforhodamine B assay relative to control; type: functional; conditions: HCT-15, 48 h, read-out: GI
[5] = tested on: MDA-MB-468; assay: Growth inhibition of human MDA-MB-468 cells at 10 uM incubated for 48 hrs by sulforhodamine B assay relative to control; type: functional; conditions: MDA-MB-468, 48 h, read-out: GI
[6] = tested on: EKVX; assay: Growth inhibition of human EKVX cells at 10 uM incubated for 48 hrs by sulforhodamine B assay relative to control; type: functional; conditions: read-out: GI
[7] = tested on: MCF7; assay: Growth inhibition of human MCF7 cells at 10 uM incubated for 48 hrs by sulforhodamine B assay relative to control; type: functional; conditions: MCF7, 48 h, read-out: GI
[8] = tested on: UACC-62; assay: Growth inhibition of human UACC62 cells at 10 uM incubated for 48 hrs by sulforhodamine B assay relative to control; type: functional; conditions: UACC-62, 48 h, read-out: GI
[9] = tested on: T47D; assay: Growth inhibition of human T47D cells at 10 uM incubated for 48 hrs by sulforhodamine B assay relative to control; type: functional; conditions: read-out: GI
[10] = tested on: RXF 393; assay: Growth inhibition of human RXF393 cells at 10 uM incubated for 48 hrs by sulforhodamine B assay relative to control; type: functional; conditions: RXF 393, 48 h, read-out: GI
[11] = tested on: HOP-62; assay: Growth inhibition of human HOP62 cells at 10 uM incubated for 48 hrs by sulforhodamine B assay relative to control; type: functional; conditions: HOP-62, 48 h, read-out: GI
[12] = tested on: NCI/ADR-RES; assay: Growth inhibition of human NCI/ADR-RES cells at 10 uM incubated for 48 hrs by sulforhodamine B assay relative to control; type: functional; conditions: read-out: GI
[13] = tested on: MDA-MB-231; assay: Growth inhibition of human MDA-MB-231 cells at 10 uM incubated for 48 hrs by sulforhodamine B assay relative to control; type: functional; conditions: MDA-MB-231, 48 h, read-out: GI
[14] = tested on: UO-31; assay: Growth inhibition of human UO31 cells at 10 uM incubated for 48 hrs by sulforhodamine B assay relative to control; type: functional; conditions: UO-31, 48 h, read-out: GI
[15] = tested on: NCI-H460; assay: Growth inhibition of human NCI-H460 cells at 10 uM incubated for 48 hrs by sulforhodamine B assay relative to control; type: functional; conditions: NCI-H460, 48 h, read-out: GI
[16] = tested on: NCI-H522; assay: Growth inhibition of human NCI-H522 cells at 10 uM incubated for 48 hrs by sulforhodamine B assay relative to control; type: functional; conditions: NCI-H522, 48 h, read-out: GI
[17] = tested on: BT-549; assay: Growth inhibition of human BT549 cells at 10 uM incubated for 48 hrs by sulforhodamine B assay relative to control; type: functional; conditions: BT-549, 48 h, read-out: GI
[18] = tested on: ACHN; assay: Growth inhibition of human ACHN cells at 10 uM incubated for 48 hrs by sulforhodamine B assay relative to control; type: functional; conditions: read-out: GI
[19] = tested on: OVCAR-5; assay: Growth inhibition of human OVCAR5 cells at 10 uM incubated for 48 hrs by sulforhodamine B assay relative to control; type: functional; conditions: OVCAR-5, 48 h, read-out: GI
[20] = tested on: SF-539; assay: Growth inhibition of human SF539 cells at 10 uM incubated for 48 hrs by sulforhodamine B assay relative to control; type: functional; conditions: SF-539, 48 h, read-out: GI
[21] = tested on: A549; assay: Growth inhibition of human A549/ATCC cells at 10 uM incubated for 48 hrs by sulforhodamine B assay relative to control; type: functional; conditions: A549, 48 h, read-out: GI
[22] = tested on: MOLT-4; assay: Growth inhibition of human MOLT4 cells at 10 uM incubated for 48 hrs by sulforhodamine B assay relative to control; type: functional; conditions: MOLT-4, 48 h, read-out: GI
[23] = tested on: HCT-116; assay: Growth inhibition of human HCT116 cells at 10 uM incubated for 48 hrs by sulforhodamine B assay relative to control; type: functional; conditions: HCT-116, 48 h, read-out: GI
[24] = tested on: TK-10; assay: Growth inhibition of human TK10 cells at 10 uM incubated for 48 hrs by sulforhodamine B assay relative to control; type: functional; conditions: TK-10, 48 h, read-out: GI
[25] = tested on: SNB-75; assay: Growth inhibition of human SNB75 cells at 10 uM incubated for 48 hrs by sulforhodamine B assay relative to control; type: functional; conditions: SNB-75, 48 h, read-out: GI
[26] = tested on: PC-3; assay: Growth inhibition of human PC3 cells at 10 uM incubated for 48 hrs by sulforhodamine B assay relative to control; type: functional; conditions: PC-3, 48 h, read-out: GI
[27] = tested on: RPMI-8226; assay: Growth inhibition of human RPMI8226 cells at 10 uM incubated for 48 hrs by sulforhodamine B assay relative to control; type: functional; conditions: RPMI-8226, 48 h, read-out: GI
[28] = tested on: K562; assay: Growth inhibition of human K562 cells at 10 uM incubated for 48 hrs by sulforhodamine B assay relative to control; type: functional; conditions: K562, 48 h, read-out: GI
[29] = tested on: NCI-H226; assay: Growth inhibition of human NCI-H226 cells at 10 uM incubated for 48 hrs by sulforhodamine B assay relative to control; type: functional; conditions: NCI-H226, 48 h, read-out: GI
[30] = target: Carbonic anhydrase 12 (Homo sapiens, UniProt O43570); assay: Inhibition of recombinant human carbonic anhydrase 12 preincubated for 15 mins by phenol red dye based stopped flow CO2 hydration assay
Chain of Carbonic anhydrase 12 (O43570 whole entry): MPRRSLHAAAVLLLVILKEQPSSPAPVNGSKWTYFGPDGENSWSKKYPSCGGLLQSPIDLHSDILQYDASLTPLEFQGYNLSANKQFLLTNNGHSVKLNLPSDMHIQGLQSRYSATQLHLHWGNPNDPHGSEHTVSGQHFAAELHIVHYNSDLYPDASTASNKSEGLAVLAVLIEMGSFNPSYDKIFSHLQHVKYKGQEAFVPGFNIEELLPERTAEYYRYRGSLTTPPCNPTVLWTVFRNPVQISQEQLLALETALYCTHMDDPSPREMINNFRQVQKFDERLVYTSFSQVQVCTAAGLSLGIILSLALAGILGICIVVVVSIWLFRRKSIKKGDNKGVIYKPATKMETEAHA

[31] = target: Carbonic anhydrase 1 (Homo sapiens, UniProt P00915); assay: Inhibition of recombinant human carbonic anhydrase 1 preincubated for 15 mins by phenol red dye based stopped flow CO2 hydration assay
Chain of Carbonic anhydrase 1 (P00915 whole entry): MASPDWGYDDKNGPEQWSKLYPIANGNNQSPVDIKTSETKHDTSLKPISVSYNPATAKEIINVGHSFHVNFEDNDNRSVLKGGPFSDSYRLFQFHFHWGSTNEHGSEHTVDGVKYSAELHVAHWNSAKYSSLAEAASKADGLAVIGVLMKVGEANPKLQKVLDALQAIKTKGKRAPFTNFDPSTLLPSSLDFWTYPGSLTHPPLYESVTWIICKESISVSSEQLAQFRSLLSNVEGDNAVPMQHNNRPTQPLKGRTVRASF

[32] = target: Carbonic anhydrase 2 (Homo sapiens, UniProt P00918); assay: Inhibition of recombinant human carbonic anhydrase 2 preincubated for 15 mins by phenol red dye based stopped flow CO2 hydration assay

SMILES: CN1C(=O)/C(=N\Nc2ccc(S(N)(=O)=O)cc2)c2cc(Br)ccc21
- Ki [1]: 40.1 nM

SMILES: CCCN1C(=O)/C(=N\Nc2ccc(S(N)(=O)=O)cc2)c2ccccc21
- Ki [1]: 28.6 nM

SMILES: CCCN1C(=O)/C(=N\Nc2ccc(S(N)(=O)=O)cc2)c2cc(Br)ccc21
- inhibition of growth at 10 µM [2]: 24%
- inhibition of growth at 10 µM [3]: 14%
- inhibition of growth at 10 µM [4]: 12%
- inhibition of growth at 10 µM [5]: 14%
- inhibition of growth at 10 µM [6]: 11%
- inhibition of growth at 10 µM [7]: 20%
- Ki [1]: 55.8 nM
- inhibition of growth at 10 µM [8]: 30%
- inhibition of growth at 10 µM [9]: 19%
- inhibition of growth at 10 µM [10]: 23%
- inhibition of growth at 10 µM [11]: 13%
- inhibition of growth at 10 µM [12]: 16%
- inhibition of growth at 10 µM [13]: 10%
- inhibition of growth at 10 µM [14]: 18%
- inhibition of growth at 10 µM [15]: 22%
- inhibition of growth at 10 µM [16]: 31%
- inhibition of growth at 10 µM [17]: 10%
- inhibition of growth at 10 µM [18]: 23%
- inhibition of growth at 10 µM [19]: 11%
- inhibition of growth at 10 µM [20]: 13%
- inhibition of growth at 10 µM [21]: 19%
- inhibition of growth at 10 µM [22]: 12%
- inhibition of growth at 10 µM [23]: 30%
- inhibition of growth at 10 µM [24]: 10%
- inhibition of growth at 10 µM [25]: 27%
- inhibition of growth at 10 µM [26]: 24%
- inhibition of growth at 10 µM [27]: 26%
- inhibition of growth at 10 µM [28]: 21%
- inhibition of growth at 10 µM [29]: 18%

SMILES: CCN1C(=O)/C(=N\Nc2ccc(S(N)(=O)=O)cc2)c2ccccc21
- Ki [1]: 25.8 nM

More lines, in order of falling Ki [1], values ahead:

- Ki [1]: 42 nM
SMILES: CCN1C(=O)/C(=N\Nc2ccc(S(N)(=O)=O)cc2)c2cc(Br)ccc21

- Ki [1]: 15.9 nM
SMILES: CCOC(=O)CN1C(=O)/C(=N\Nc2ccc(S(N)(=O)=O)cc2)c2ccccc21

- Ki [1]: 8.3 nM
- Ki [30]: 11.9 nM
- Ki [31]: 1810 nM
- Ki [32]: 35.9 nM
SMILES: NS(=O)(=O)c1ccc(N/N=C2\C(=O)Nc3ccc(Cl)cc32)cc1 [GW280670X]
